This is an account of results in paper PMC7582767, “Protective Effect of CXCR4 Antagonist CX807 in a Rat Model of Hemorrhagic Stroke” (International Journal of Molecular Sciences, 2020).

SMILES strings stand for the structures.

In this test the target is T1, CXCR4 (C-X-C chemokine receptor type 4) (Homo sapiens, UniProt P61073).
T1 construct: purified membrane fractions of HEK293 cells overexpressing CXCR4
Description: […]CXCL12 radioligand displacement on CXCR4 membranes. It is filed as binding.

T1 sequence (P61073 whole entry): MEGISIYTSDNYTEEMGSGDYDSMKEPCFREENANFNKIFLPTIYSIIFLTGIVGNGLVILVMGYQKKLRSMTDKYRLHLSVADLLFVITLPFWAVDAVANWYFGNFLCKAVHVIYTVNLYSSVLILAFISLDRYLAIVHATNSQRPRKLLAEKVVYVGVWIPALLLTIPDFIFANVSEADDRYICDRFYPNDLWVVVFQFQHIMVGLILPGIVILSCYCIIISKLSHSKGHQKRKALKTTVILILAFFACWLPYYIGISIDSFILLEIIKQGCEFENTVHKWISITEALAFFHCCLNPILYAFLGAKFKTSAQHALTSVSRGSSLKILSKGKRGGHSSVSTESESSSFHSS

For the compound `Cc1cc(NC2CCN(C(=O)CCNCC(=O)O)CC2)nc(NCc2nc(CCCNCCCNC3CCCCC3)co2)n1` [CX807], the IC50 was 0.0654 ± 0.0118 µM.
